Reference: ChEMBL document CHEMBL5291721, “A preclinical secondary pharmacology resource illuminates target-adverse drug reaction associations of marketed drugs” (Nat Commun, 2023)

Legend:
[1] = molecular target: T1, Alpha-2A adrenergic receptor (Homo sapiens, UniProt P08913); type: functional, cell-based
T1 sequence (P08913 whole entry): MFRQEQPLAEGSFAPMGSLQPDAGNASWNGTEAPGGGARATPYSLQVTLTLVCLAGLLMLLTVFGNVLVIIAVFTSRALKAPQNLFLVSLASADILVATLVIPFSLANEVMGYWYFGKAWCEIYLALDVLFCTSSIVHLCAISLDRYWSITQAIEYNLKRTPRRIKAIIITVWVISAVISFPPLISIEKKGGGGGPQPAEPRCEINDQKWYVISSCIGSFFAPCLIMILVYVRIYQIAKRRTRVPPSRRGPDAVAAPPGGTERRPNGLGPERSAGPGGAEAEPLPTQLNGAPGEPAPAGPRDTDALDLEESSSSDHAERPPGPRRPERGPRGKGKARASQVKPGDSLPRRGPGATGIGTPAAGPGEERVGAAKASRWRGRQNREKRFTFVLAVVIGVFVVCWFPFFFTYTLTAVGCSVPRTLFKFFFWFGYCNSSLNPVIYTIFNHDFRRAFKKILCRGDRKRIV

[2] = molecular target: T2, Alpha-2B adrenergic receptor (Homo sapiens, UniProt P18089)
T2 sequence (P18089 whole entry): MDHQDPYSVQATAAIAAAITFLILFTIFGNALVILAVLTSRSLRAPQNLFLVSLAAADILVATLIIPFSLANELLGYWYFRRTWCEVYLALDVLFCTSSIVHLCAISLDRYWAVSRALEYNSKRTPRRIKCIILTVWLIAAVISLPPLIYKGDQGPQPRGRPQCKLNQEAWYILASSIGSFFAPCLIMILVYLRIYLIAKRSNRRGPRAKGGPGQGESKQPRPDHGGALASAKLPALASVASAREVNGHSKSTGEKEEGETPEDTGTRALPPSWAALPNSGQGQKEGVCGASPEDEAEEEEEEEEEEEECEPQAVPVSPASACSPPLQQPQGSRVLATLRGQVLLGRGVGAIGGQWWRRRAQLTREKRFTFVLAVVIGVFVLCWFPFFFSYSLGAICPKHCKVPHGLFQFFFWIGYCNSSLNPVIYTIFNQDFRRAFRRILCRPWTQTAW

[3] = molecular target: Beta-2 adrenergic receptor (Homo sapiens, UniProt P07550)
B2 bradykinin receptor = molecular target: T3, B2 bradykinin receptor (Homo sapiens, UniProt P30411)
T3 sequence (P30411 whole entry): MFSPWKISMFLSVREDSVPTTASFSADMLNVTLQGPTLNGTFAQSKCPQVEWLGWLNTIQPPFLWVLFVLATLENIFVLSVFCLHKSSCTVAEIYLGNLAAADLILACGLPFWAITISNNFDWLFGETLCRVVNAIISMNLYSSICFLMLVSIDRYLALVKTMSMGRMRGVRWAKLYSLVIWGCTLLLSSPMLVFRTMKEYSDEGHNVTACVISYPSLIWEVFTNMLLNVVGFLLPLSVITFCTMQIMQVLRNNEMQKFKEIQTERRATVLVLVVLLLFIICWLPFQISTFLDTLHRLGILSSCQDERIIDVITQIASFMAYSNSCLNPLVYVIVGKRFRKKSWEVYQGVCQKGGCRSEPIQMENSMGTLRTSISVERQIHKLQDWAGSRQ

[4] = molecular target: T4, Muscarinic acetylcholine receptor M2 (Homo sapiens, UniProt P08172); type: functional, cell-based
T4 sequence (P08172 whole entry): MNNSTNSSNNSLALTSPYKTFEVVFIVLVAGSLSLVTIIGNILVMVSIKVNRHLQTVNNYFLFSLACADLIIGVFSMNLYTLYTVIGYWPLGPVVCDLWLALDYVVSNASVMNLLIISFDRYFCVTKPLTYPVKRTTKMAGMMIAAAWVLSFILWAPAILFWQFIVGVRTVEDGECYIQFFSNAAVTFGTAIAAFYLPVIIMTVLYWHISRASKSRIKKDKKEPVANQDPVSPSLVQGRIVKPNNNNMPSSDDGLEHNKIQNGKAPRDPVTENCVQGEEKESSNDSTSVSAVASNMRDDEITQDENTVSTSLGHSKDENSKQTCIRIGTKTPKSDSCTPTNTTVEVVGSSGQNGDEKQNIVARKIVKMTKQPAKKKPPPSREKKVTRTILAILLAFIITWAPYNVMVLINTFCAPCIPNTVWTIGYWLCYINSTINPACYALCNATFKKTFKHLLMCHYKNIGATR

[5] = molecular target: Glutamate receptor ionotropic, NMDA 1 (Rattus norvegicus, UniProt P35439)
Melanocortin receptor 3 = Melanocortin receptor 3 (Homo sapiens, UniProt P41968)
[6] = molecular target: T5, Neuropeptide Y receptor type 1 (Homo sapiens, UniProt P25929); settings: read-out: AC50
T5 sequence (P25929 whole entry): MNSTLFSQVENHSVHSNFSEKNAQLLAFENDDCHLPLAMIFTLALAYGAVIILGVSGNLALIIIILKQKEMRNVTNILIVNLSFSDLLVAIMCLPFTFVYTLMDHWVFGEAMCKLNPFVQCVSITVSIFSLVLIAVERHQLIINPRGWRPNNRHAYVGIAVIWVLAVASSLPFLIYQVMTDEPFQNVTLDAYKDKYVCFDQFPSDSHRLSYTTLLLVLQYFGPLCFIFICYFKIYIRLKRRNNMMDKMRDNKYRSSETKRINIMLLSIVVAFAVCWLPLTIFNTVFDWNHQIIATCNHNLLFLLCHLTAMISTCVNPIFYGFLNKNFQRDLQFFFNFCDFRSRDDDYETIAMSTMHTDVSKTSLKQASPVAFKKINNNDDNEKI

[7] = molecular target: Delta-type opioid receptor (Homo sapiens, UniProt P41143)
[8] = molecular target: T6, Equilibrative nucleoside transporter 1 (Homo sapiens, UniProt Q99808)
T6 sequence (Q99808 whole entry): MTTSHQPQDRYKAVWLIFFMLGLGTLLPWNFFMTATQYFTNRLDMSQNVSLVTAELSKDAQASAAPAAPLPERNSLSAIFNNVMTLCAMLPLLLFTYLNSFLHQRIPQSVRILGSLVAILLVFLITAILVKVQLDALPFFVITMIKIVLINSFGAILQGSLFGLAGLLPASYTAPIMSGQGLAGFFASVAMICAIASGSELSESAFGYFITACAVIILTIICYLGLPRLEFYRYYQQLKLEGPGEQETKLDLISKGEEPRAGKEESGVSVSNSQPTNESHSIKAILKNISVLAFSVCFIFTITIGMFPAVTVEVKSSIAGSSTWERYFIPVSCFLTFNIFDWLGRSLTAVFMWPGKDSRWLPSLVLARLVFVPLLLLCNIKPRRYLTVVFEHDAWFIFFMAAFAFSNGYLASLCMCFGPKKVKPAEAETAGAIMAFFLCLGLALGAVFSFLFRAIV

[9] = molecular target: Sodium-dependent dopamine transporter (Homo sapiens, UniProt Q01959)
Note: assay procedure not described here.

Sequence of Delta-type opioid receptor (P41143 whole entry): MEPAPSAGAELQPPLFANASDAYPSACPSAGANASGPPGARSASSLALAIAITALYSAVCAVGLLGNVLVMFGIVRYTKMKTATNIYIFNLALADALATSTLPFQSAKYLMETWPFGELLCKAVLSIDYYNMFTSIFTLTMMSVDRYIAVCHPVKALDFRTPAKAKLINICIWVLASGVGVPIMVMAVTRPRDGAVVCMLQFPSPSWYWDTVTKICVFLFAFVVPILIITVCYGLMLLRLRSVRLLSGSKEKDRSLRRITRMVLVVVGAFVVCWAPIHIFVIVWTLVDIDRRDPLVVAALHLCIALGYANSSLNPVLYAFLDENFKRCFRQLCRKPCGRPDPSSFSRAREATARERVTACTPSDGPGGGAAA
Sequence of Melanocortin receptor 3 (P41968 whole entry): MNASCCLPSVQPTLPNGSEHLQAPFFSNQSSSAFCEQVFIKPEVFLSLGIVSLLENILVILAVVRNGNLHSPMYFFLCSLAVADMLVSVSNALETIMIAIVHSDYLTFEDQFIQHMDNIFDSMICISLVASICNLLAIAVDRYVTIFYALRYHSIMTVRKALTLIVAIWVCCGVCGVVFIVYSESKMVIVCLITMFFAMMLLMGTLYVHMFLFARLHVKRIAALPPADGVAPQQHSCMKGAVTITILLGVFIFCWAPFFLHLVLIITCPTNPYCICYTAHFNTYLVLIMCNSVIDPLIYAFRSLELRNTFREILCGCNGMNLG
Sequence of Beta-2 adrenergic receptor (P07550 whole entry): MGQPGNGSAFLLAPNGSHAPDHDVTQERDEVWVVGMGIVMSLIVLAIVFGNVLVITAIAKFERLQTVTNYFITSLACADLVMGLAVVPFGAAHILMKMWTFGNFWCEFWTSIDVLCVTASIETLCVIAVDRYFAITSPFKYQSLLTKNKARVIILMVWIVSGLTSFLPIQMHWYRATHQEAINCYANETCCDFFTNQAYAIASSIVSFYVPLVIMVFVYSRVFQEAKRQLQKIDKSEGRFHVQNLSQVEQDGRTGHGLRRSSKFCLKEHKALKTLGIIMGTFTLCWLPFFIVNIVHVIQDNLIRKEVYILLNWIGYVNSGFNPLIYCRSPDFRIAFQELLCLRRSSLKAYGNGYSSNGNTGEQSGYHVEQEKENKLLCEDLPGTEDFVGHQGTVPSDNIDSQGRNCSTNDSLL
Sequence of Sodium-dependent dopamine transporter (Q01959 whole entry): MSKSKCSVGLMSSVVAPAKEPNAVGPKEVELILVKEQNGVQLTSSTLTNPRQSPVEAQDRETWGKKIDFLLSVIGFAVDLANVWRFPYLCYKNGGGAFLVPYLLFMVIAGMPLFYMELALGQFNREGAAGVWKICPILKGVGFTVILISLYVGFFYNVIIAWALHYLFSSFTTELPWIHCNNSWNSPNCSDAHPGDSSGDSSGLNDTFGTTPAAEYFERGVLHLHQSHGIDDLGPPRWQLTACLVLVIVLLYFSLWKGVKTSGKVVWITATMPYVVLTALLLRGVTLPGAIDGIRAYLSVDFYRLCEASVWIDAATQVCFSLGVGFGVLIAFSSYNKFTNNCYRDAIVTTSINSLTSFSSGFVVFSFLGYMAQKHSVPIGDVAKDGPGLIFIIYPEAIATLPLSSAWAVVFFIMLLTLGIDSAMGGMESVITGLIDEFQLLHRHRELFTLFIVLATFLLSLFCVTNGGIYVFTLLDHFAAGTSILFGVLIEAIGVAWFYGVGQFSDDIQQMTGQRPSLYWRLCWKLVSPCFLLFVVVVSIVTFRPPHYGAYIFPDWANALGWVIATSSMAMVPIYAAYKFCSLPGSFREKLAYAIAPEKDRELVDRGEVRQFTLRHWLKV

Row | SMILES | AC50 [1] | AC50 [2] | AC50 [3] | AC50 (B2 bradykinin receptor) | AC50 [4] | AC50 [5] | AC50 (Melanocortin receptor 3) | AC50 [6] | AC50 [7] | AC50 [8] | AC50 [9]
1 | CC(=O)[C@@]1(O)CC[C@H]2[C@@H]3C=C(Cl)C4=CC(=O)[C@@H]5C[C@@H]5[C@]4(C)[C@H]3CC[C@@]21C [CYPROTERONE] | > 10 µM | > 10 µM | > 10 µM | > 10 µM | > 10 µM | > 10 µM | > 10 µM | > 10 µM | > 30 µM | > 10 µM | > 10 µM
2 | C/C(=C\C(=O)OCCCCCCCCC(=O)O)C[C@@H]1OC[C@H](C[C@@H]2O[C@H]2[C@@H](C)[C@H](C)O)[C@@H](O)[C@H]1O [MUPIROCIN] | > 10 µM | > 10 µM | > 10 µM | > 10 µM | > 10 µM | > 10 µM | > 10 µM | > 10 µM | > 30 µM | > 30 µM | > 30 µM
3 | CC(=O)OCC(=O)[C@@]1(O)[C@H](C)C[C@H]2[C@@H]3CCC4=CC(=O)C=C[C@]4(C)[C@@]3(F)[C@@H](O)C[C@@]21C [DEXAMETHASONE ACETATE] | > 10 µM | > 10 µM | > 10 µM | > 30 µM | > 10 µM | > 10 µM | > 30 µM | > 30 µM | > 30 µM | > 30 µM | > 30 µM
4 | O=C(O)c1ccccc1Nc1cc(Cl)ccc1C(=O)O [LOBENZARIT] | > 30 µM | > 30 µM | > 30 µM | > 30 µM | > 30 µM | 25 µM | > 30 µM | > 30 µM | > 30 µM | > 30 µM | > 30 µM
5 | Cc1ncc2n1-c1ccc(Cl)cc1C(c1ccccc1F)=NC2 [MIDAZOLAM] | > 10 µM | > 10 µM | > 10 µM | > 30 µM | > 10 µM | > 10 µM | > 30 µM | > 30 µM | > 30 µM | > 30 µM | > 30 µM
6 | C=C[C@@]1(C)CC(=O)[C@]2(O)[C@@]3(C)[C@@H](O)CCC(C)(C)[C@@H]3[C@H](O)[C@H](OC(C)=O)[C@@]2(C)O1 [COLFORSIN] | > 30 µM | > 30 µM | > 30 µM | > 30 µM | 11 µM | > 30 µM | > 30 µM | > 30 µM | > 30 µM | > 30 µM | > 30 µM
7 | CCN(CC)CCN1C(=O)CN=C(c2ccccc2F)c2cc(Cl)ccc21 [FLURAZEPAM] | > 10 µM | > 10 µM | > 10 µM | > 30 µM | > 10 µM | > 10 µM | > 30 µM | > 30 µM | > 30 µM | > 30 µM | > 30 µM
8 | COc1cc2c(cc1OC)C(CCc1ccc(Cl)cc1)N(C)CC2 (stereo unspecified) [METHOPHOLINE] | > 10 µM | > 10 µM | > 30 µM | > 30 µM | > 10 µM | > 10 µM | > 30 µM | > 30 µM | > 30 µM | > 30 µM | 28.7 µM
9 | COc1ccc(-c2noc(CC(=O)O)c2-c2ccc(OC)cc2)cc1 [MOFEZOLAC] | > 30 µM | > 30 µM | > 30 µM | > 30 µM | > 30 µM | > 30 µM | > 30 µM | > 30 µM | > 30 µM | > 30 µM | > 30 µM
10 | Cn1c(=O)cc(N2CCC[C@@H](N)C2)n(Cc2ccccc2C#N)c1=O [ALOGLIPTIN] | – | > 10 µM | > 10 µM | > 30 µM | – | > 10 µM | > 30 µM | > 30 µM | > 10 µM | > 30 µM | > 10 µM
11 | C[N@+]1(CCF)[C@@H]2CC[C@H]1C[C@@H](OC(=O)C(O)(c1ccccc1)c1ccccc1)C2 | > 30 µM | > 30 µM | > 30 µM | > 30 µM | 0.0145 µM | > 30 µM | > 30 µM | > 30 µM | > 30 µM | > 30 µM | > 30 µM
12 | COc1ccc2nc3cc(Cl)ccc3c(Nc3cc(CN4CCCC4)c(O)c(CN4CCCC4)c3)c2n1 [PYRONARIDINE] | > 30 µM | > 30 µM | > 30 µM | > 30 µM | 15 µM | > 30 µM | > 30 µM | > 30 µM | > 30 µM | 21 µM | 11 µM
13 | O=C1CN=C(c2ccccn2)c2cc(Br)ccc2N1 [BROMAZEPAM] | > 10 µM | > 10 µM | > 10 µM | > 10 µM | > 10 µM | > 10 µM | > 10 µM | > 10 µM | > 30 µM | > 10 µM | > 10 µM
14 | CCC(COC(=O)c1cc(OC)c(OC)c(OC)c1)(c1ccccc1)N(C)C (stereo unspecified) [TRIMEBUTINE] | > 30 µM | 17 µM | > 30 µM | > 30 µM | 1.2 µM | > 30 µM | > 30 µM | > 30 µM | 4 µM | – | 27 µM
